This data set can be described thus: Thermal Stability Test. In kind it is physicochemical. The following applies: 45° C. oven for 21 days; compared with ascorbic acid (FIG. 4). As for the experimental part: FIG. 4 is a diagram of Thermal Stability Test observed at 45° C. oven for 21 days.
Competitive with 3-O-ethyl-ascorbic acid and Azelaic acid, inventive samples have best effect in tyrsoinase inhibition.

With `CCOC1=C(O)C(=O)O[C@@H]1[C@@H](O)COC(=O)CCCCCCCC(=O)O` [Formula (IV), 3-O-ethyl-ascorbyl-6-nonanedioate], the thermal stability result was “stable than ascorbic acid”.

For the origin of these results see patent US7741496B2, “Ascorbic acid derivatives” (Corum Inc., priority 2008, dated 2010).
